Data published in patent US20240384350A1, “METHODS OF TREATING CANCER WITH KINASE INHIBITORS” (BOARD OF REGENTS, THE UNIVERSITY OF TEXAS SYSTEM, priority 2021, published 2024).

Legend:
Test in all cases: Ba/F3 drug screening, Cell Titer Glo, IC50 Mut/WT
Type in all cases: cell-based
EGFR E709K L858R = biological target: T1, EGFR E709K L858R (Homo sapiens, UniProt P00533, E709K/L858R); settings: Classical-Like, 72 hours
T1 construct: expressed in transfected cells; host or cells: Ba/F3 cells, retroviral pBabe-Puro vector
Description: (§1) Data represent the ratio of the IC50 value for a given TKI for cells with a classical-like EGFR mutation to the IC50 value for cells with wildtype EGFR.
(§2) Ba/F3 cell generation, drug screening, and IC50 approximations. Ba/F3 cells were obtained as a gift from Dr. Gordon Mills (MD Anderson Cancer Center), and maintained in RPMI (Sigma) containing 10% FBS, 1% penicillin/streptomycin, and 10 ng/ml recombinant mIL-3 (R&D Biosystems). To establish stable Ba/F3 cell lines, Ba/F3 cells were transduced with retroviruses containing mutant EGFR plasmids for 12-24 hours.
(§3) After 48-72 hours of transduction, 2 μg/ml puromycin (Invitrogen) was added to Ba/F3 cell lines in complete RPMI. To select for EGFR positive cell lines, cells were stained with PE-EGFR (Biolegend) and sorted by FACS. After sorting, EGFR positive cells were maintained in RPMI containing 10% FBS, 1% penicillin/streptomycin, and 1 ng/ml EGF to support cell viability. […] Shortly, cells were plated in 384-well plates (Greiner Bio-One) at 2000-3000 cells per well in technical triplicate. Seven different concentrations of TKIs or DMSO vehicle were added to reach a final volume of 40 μL per well. After 72 hours, 11 μL of Cell Titer Glo (Promega) was added to each well. Plates were incubated for a minimum of 10 minutes, and bioluminescence was determined using a FLUOstar OPTIMA plate reader (BMG LABTECH). Raw bioluminescence values were normalized to DMSO control treated cells, and values were plotted in GraphPad Prism. […] Drug screens were performed in technical triplicate on each plate and either duplicate or triplicate biological replicates.

EGFR S720P = biological target: T2, EGFR S720P (Homo sapiens, UniProt P00533, S720P); settings: Classical-Like, 72 hours
T2 construct: expressed in transfected cells; host or cells: Ba/F3 cells, retroviral pBabe-Puro vector (vector made by GeneScript from EGFR WT)
Description: as §1, §2, §3

EGFR L861Q = biological target: T3, EGFR L861Q (Homo sapiens, UniProt P00533, L861Q); settings: Classical-Like, 72 hours
T3 construct: expressed in transfected cells; host or cells: Ba/F3 cells, retroviral pBabe-Puro vector

EGFR A763insFQEA = biological target: T4, EGFR A763insFQEA (Homo sapiens, UniProt P00533, INS763FQEA); settings: Classical-Like, 72 hours
T4 construct: expressed in transfected cells; host or cells: Ba/F3 cells, retroviral pBabe-Puro vector

EGFR A763insLQEA = biological target: T5, EGFR A763insLQEA (Homo sapiens, UniProt P00533, INS763LQEA); settings: Classical-Like, 72 hours
T5 construct: expressed in transfected cells; host or cells: Ba/F3 cells, retroviral pBabe-Puro vector

EGFR D761N = biological target: T6, EGFR D761N (Homo sapiens, UniProt P00533, D761N); settings: Classical-Like, 72 hours
T6 construct: expressed in transfected cells; host or cells: Ba/F3 cells, retroviral pBabe-Puro vector

EGFR S768dupSVD = biological target: T7, EGFR S768dupSVD (Homo sapiens, UniProt P00533, DUP768-770); settings: Ex20, 72 hours
T7 construct: expressed in transfected cells; host or cells: Ba/F3 cells, retroviral pBabe-Puro vector
Description: (§4) Data represent the ratio of the IC50 value for a given TKI for cells with an ex20ins EGFR mutation to the IC50 value for cells with wildtype EGFR.
as §2
(§5) After 48-72 hours of transduction, 2 μg/ml puromycin (Invitrogen) was added to Ba/F3 cell lines in complete RPMI. To select for EGFR positive cell lines, cells were stained with PE-EGFR (Biolegend) and sorted by FACS. After sorting, EGFR positive cells were maintained in RPMI containing 10% FBS, 1% penicillin/streptomycin, and 1 ng/ml EGF to support cell viability. Drug screening was performed as previously described^41,42. Shortly, cells were plated in 384-well plates (Greiner Bio-One) at 2000-3000 cells per well in technical triplicate. Seven different concentrations of TKIs or DMSO vehicle were added to reach a final volume of 40 μL per well. After 72 hours, 11 μL of Cell Titer Glo (Promega) was added to each well. Plates were incubated for a minimum of 10 minutes, and bioluminescence was determined using a FLUOstar OPTIMA plate reader (BMG LABTECH). Raw bioluminescence values were normalized to DMSO control treated cells, and values were plotted in GraphPad Prism. […] Drug screens were performed in technical triplicate on each plate and either duplicate or triplicate biological replicates. […] Statistical differences between groups were determined by ANOVA as described in the figure legends.

EGFR N771dupN = biological target: T8, EGFR N771dupN (Homo sapiens, UniProt P00533, DUP771-771); settings: Ex20, 72 hours
T8 construct: expressed in transfected cells; host or cells: Ba/F3 cells, retroviral pBabe-Puro vector
Description: as §4, §2, §5

EGFR T790M = biological target: T9, EGFR T790M (Homo sapiens, UniProt P00533, T790M); settings: T790M-like-3S, 72 hours
T9 construct: expressed in transfected cells; host or cells: Ba/F3

EGFR Ex19del T790M = biological target: T10, EGFR Ex19del T790M (Homo sapiens, UniProt P00533, DEL746-750/T790M); settings: T790M-like-3S, 72 hours
T10 construct: expressed in transfected cells; host or cells: Ba/F3
Description: (§6) Data represent the ratio of the IC50 value for a given TKI for cells with a T790M-like-3S EGFR mutation to the IC50 value for cells with wildtype EGFR.
as §2
(§7) After 48-72 hours of transduction, 2 μg/ml puromycin (Invitrogen) was added to Ba/F3 cell lines in complete RPMI. To select for EGFR positive cell lines, cells were stained with PE-EGFR (Biolegend) and sorted by FACS. After sorting, EGFR positive cells were maintained in RPMI containing 10% FBS, 1% penicillin/streptomycin, and 1 ng/ml EGF to support cell viability. Drug screening was performed as previously described^41,42. Shortly, cells were plated in 384-well plates (Greiner Bio-One) at 2000-3000 cells per well in technical triplicate. Seven different concentrations of TKIs or DMSO vehicle were added to reach a final volume of 40 μL per well. After 72 hours, 11 μL of Cell Titer Glo (Promega) was added to each well. Plates were incubated for a minimum of 10 minutes, and bioluminescence was determined using a FLUOstar OPTIMA plate reader (BMG LABTECH). Raw bioluminescence values were normalized to DMSO control treated cells, and values were plotted in GraphPad Prism. […] Drug screens were performed in technical triplicate on each plate and either duplicate or triplicate biological replicates.

EGFR G719A T790M = biological target: T11, EGFR G719A T790M (Homo sapiens, UniProt P00533, G719A/T790M); settings: T790M-like-3S, 72 hours
T11 construct: expressed in transfected cells; host or cells: Ba/F3

EGFR G719S T790M = biological target: T12, EGFR G719S T790M (Homo sapiens, UniProt P00533, G719S/T790M); settings: T790M-like-3S, 72 hours
T12 construct: expressed in transfected cells; host or cells: Ba/F3
Description: as §6, §2, §7

EGFR L858R T790M L792H = biological target: T13, EGFR L858R T790M L792H (Homo sapiens, UniProt P00533, L792H/L858R/T790M); settings: T790M-like-3S, 72 hours
T13 construct: expressed in transfected cells; host or cells: Ba/F3
Description: as §6, §2, §7

EGFR Ex19del/T790M/L792H = biological target: T14, EGFR Ex19del/T790M/L792H (Homo sapiens, UniProt P00533, DEL746-750/L792H/T790M); settings: T790M-like-3R, 72 hours
T14 construct: expressed in transfected cells; host or cells: Ba/F3

EGFR Ex19del T790M C797S = biological target: T15, EGFR Ex19del T790M C797S (Homo sapiens, UniProt P00533, C797S/DEL746-750/T790M); settings: T790M-like-3R, 72 hours
T15 construct: expressed in transfected cells; host or cells: Ba/F3
Description: Data represent the ratio of the IC50 value for a given TKI for cells with a T790M-like-3R EGFR mutation to the IC50 value for cells with wildtype EGFR.
as §2
After 48-72 hours of transduction, 2 μg/ml puromycin (Invitrogen) was added to Ba/F3 cell lines in complete RPMI. To select for EGFR positive cell lines, cells were stained with PE-EGFR (Biolegend) and sorted by FACS. After sorting, EGFR positive cells were maintained in RPMI containing 10% FBS, 1% penicillin/streptomycin, and 1 ng/ml EGF to support cell viability. […] Shortly, cells were plated in 384-well plates (Greiner Bio-One) at 2000-3000 cells per well in technical triplicate. Seven different concentrations of TKIs or DMSO vehicle were added to reach a final volume of 40 μL per well. After 72 hours, 11 μL of Cell Titer Glo (Promega) was added to each well. Plates were incubated for a minimum of 10 minutes, and bioluminescence was determined using a FLUOstar OPTIMA plate reader (BMG LABTECH). Raw bioluminescence values were normalized to DMSO control treated cells, and values were plotted in GraphPad Prism. […] Drug screens were performed in technical triplicate on each plate and either duplicate or triplicate biological replicates. […] Statistical differences between groups were determined by ANOVA as described in the figure legends.

EGFR E709K G719S = biological target: T16, EGFR E709K G719S (Homo sapiens, UniProt P00533, E709K/G719S); settings: PACC; E709K G719S; Ba/F3; 72 hours
T16 construct: expressed in transfected cells; host or cells: Ba/F3
Description: (§8) Data represent the ratio of the IC50 value for a given TKI for cells with a PACC EGFR mutation to the IC50 value for cells with wildtype EGFR.
as §2, §7

EGFR E709A = biological target: T17, EGFR E709A (Homo sapiens, UniProt P00533, E709A); settings: PACC; E709A; Ba/F3; 72 hours
T17 construct: expressed in transfected cells; host or cells: Ba/F3
Description: as §8, §2, §7

EGFR E709K = biological target: T18, EGFR E709K (Homo sapiens, UniProt P00533, E709K); settings: PACC; E709K; Ba/F3; 72 hours
T18 construct: expressed in transfected cells; host or cells: Ba/F3
Description: as §8, §2, §7

EGFR L718V = biological target: T19, EGFR L718V (Homo sapiens, UniProt P00533, L718V); settings: PACC; L718V; Ba/F3; 72 hours
T19 construct: expressed in transfected cells; host or cells: Ba/F3
Description: as §8, §2, §7

EGFR G719S = biological target: T20, EGFR G719S (Homo sapiens, UniProt P00533, G719S); settings: PACC; G719S; Ba/F3; 72 hours
T20 construct: expressed in transfected cells; host or cells: Ba/F3
Description: as §8, §2, §7

EGFR G719A = biological target: T21, EGFR G719A (Homo sapiens, UniProt P00533, G719A); settings: PACC; G719A; Ba/F3; 72 hours
T21 construct: expressed in transfected cells; host or cells: Ba/F3

EGFR G724S = biological target: T22, EGFR G724S (Homo sapiens, UniProt P00533, G724S); settings: PACC; G724S; Ba/F3; 72 hours
T22 construct: expressed in transfected cells; host or cells: Ba/F3
Description: as §8, §2, §7

EGFR L858R/L718V = biological target: T23, EGFR L858R/L718V (Homo sapiens, UniProt P00533, L718V/L858R); settings: PACC; L858R/L718V; Ba/F3; 72 hours
T23 construct: host or cells: Ba/F3

EGFR Ex19del G796S = biological target: T24, EGFR Ex19del G796S (Homo sapiens, UniProt P00533, DEL746-750/G796S); settings: PACC; Ex19del G796S; Ba/F3; 72 hours
T24 construct: expressed in transfected cells; host or cells: Ba/F3
Description: as §8, §2, §7

EGFR L858R/C797S = biological target: T25, EGFR L858R/C797S (Homo sapiens, UniProt P00533, C797S/L858R); settings: PACC; L858R/C797S; Ba/F3; 72 hours
T25 construct: expressed in transfected cells; host or cells: Ba/F3
Description: as §8, §2, §7

EGFR Ex19del/C797S = biological target: T26, EGFR Ex19del/C797S (Homo sapiens, UniProt P00533, C797S/DEL746-750); settings: PACC; Ex19del/C797S; Ba/F3; 72 hours
T26 construct: expressed in transfected cells; host or cells: Ba/F3
Description: as §8, §2, §7

EGFR Ex19del L718V = biological target: T27, EGFR Ex19del L718V (Homo sapiens, UniProt P00533, DEL746-750/L718V); settings: PACC; Ex19del L718V; Ba/F3; 72 hours
T27 construct: expressed in transfected cells; host or cells: Ba/F3
Description: as §8, §2, §7

Row | SMILES | ratio of IC50 for cells with mutant EGFR to IC50 for cells with wildtype EGFR (Mut/WT) (EGFR E709K L858R) | ratio of IC50 for cells with mutant EGFR to IC50 for cells with wildtype EGFR (Mut/WT) (EGFR S720P) | ratio of IC50 for cells with mutant EGFR to IC50 for cells with wildtype EGFR (Mut/WT) (EGFR L861Q) | ratio of IC50 for cells with mutant EGFR to IC50 for cells with wildtype EGFR (Mut/WT) (EGFR A763insFQEA) | ratio of IC50 for cells with mutant EGFR to IC50 for cells with wildtype EGFR (Mut/WT) (EGFR A763insLQEA) | ratio of IC50 for cells with mutant EGFR to IC50 for cells with wildtype EGFR (Mut/WT) (EGFR D761N) | ratio of IC50 for cells with mutant EGFR to IC50 for cells with wildtype EGFR (Mut/WT) (EGFR S768dupSVD) | ratio of IC50 for cells with mutant EGFR to IC50 for cells with wildtype EGFR (Mut/WT) (EGFR N771dupN) | ratio of IC50 for cells with mutant EGFR to IC50 for cells with wildtype EGFR (Mut/WT) (EGFR T790M) | ratio of IC50 for cells with mutant EGFR to IC50 for cells with wildtype EGFR (Mut/WT) (EGFR Ex19del T790M) | ratio of IC50 for cells with mutant EGFR to IC50 for cells with wildtype EGFR (Mut/WT) (EGFR G719A T790M) | ratio of IC50 for cells with mutant EGFR to IC50 for cells with wildtype EGFR (Mut/WT) (EGFR G719S T790M) | ratio of IC50 for cells with mutant EGFR to IC50 for cells with wildtype EGFR (Mut/WT) (EGFR L858R T790M L792H) | ratio of IC50 for cells with mutant EGFR to IC50 for cells with wildtype EGFR (Mut/WT) (EGFR Ex19del/T790M/L792H) | ratio of IC50 for cells with mutant EGFR to IC50 for cells with wildtype EGFR (Mut/WT) (EGFR Ex19del T790M C797S) | ratio of IC50 for cells with mutant EGFR to IC50 for cells with wildtype EGFR (Mut/WT) (EGFR E709K G719S) | ratio of IC50 for cells with mutant EGFR to IC50 for cells with wildtype EGFR (Mut/WT) (EGFR E709A) | ratio of IC50 for cells with mutant EGFR to IC50 for cells with wildtype EGFR (Mut/WT) (EGFR E709K) | ratio of IC50 for cells with mutant EGFR to IC50 for cells with wildtype EGFR (Mut/WT) (EGFR L718V) | ratio of IC50 for cells with mutant EGFR to IC50 for cells with wildtype EGFR (Mut/WT) (EGFR G719S) | also measured
1 | COc1cc2ncnc(Nc3cccc(Cl)c3F)c2cc1OC(=O)N1CCN(C)C[C@H]1C [AZD3759] | 0.02202 | 0.01834 | 0.08924 | 0.02225 | 0.02905 | 0.6757 | 3.075 | 1.567 | 21.82 | 12.68 | 9.625 | 8.021 | 9.625 | 9.625 | 9.625 | 0.3636 | 0.1241 | 0.3129 | 0.6898 | 0.01105 | ratio of IC50 for cells with mutant EGFR to IC50 for cells with wildtype EGFR (Mut/WT) (EGFR G719A): 0.1002; ratio of IC50 for cells with mutant EGFR to IC50 for cells with wildtype EGFR (Mut/WT) (EGFR G724S): 0.01105; ratio of IC50 for cells with mutant EGFR to IC50 for cells with wildtype EGFR (Mut/WT) (EGFR L858R/L718V): 0.2408; ratio of IC50 for cells with mutant EGFR to IC50 for cells with wildtype EGFR (Mut/WT) (EGFR Ex19del G796S): 4.084; ratio of IC50 for cells with mutant EGFR to IC50 for cells with wildtype EGFR (Mut/WT) (EGFR L858R/C797S): 0.001895; ratio of IC50 for cells with mutant EGFR to IC50 for cells with wildtype EGFR (Mut/WT) (EGFR Ex19del/C797S): 0.0001375; ratio of IC50 for cells with mutant EGFR to IC50 for cells with wildtype EGFR (Mut/WT) (EGFR Ex19del L718V): 0.04127
2 | COc1cc2ncnc(Nc3ccc(F)c(Cl)c3)c2cc1NC(=O)/C=C/CN1CCCCC1 [Dacomitinib] | 0.007985 | 0.03879 | 0.002064 | 0.0379 | 0.001484 | 0.0008794 | 0.882 | 6.261 | 6.061 | 4.871 | 0.9195 | 3.776 | 8.291 | 48.51 | 38.03 | 0.001358 | 0.04024 | 0.2711 | 0.1103 | 0.002178 | ratio of IC50 for cells with mutant EGFR to IC50 for cells with wildtype EGFR (Mut/WT) (EGFR G719A): 0.001888; ratio of IC50 for cells with mutant EGFR to IC50 for cells with wildtype EGFR (Mut/WT) (EGFR G724S): 0.2379; ratio of IC50 for cells with mutant EGFR to IC50 for cells with wildtype EGFR (Mut/WT) (EGFR L858R/L718V): 0.001529; ratio of IC50 for cells with mutant EGFR to IC50 for cells with wildtype EGFR (Mut/WT) (EGFR Ex19del G796S): 0.2371; ratio of IC50 for cells with mutant EGFR to IC50 for cells with wildtype EGFR (Mut/WT) (EGFR L858R/C797S): 0.04539; ratio of IC50 for cells with mutant EGFR to IC50 for cells with wildtype EGFR (Mut/WT) (EGFR Ex19del/C797S): 0.01762; ratio of IC50 for cells with mutant EGFR to IC50 for cells with wildtype EGFR (Mut/WT) (EGFR Ex19del L718V): 0.0061
